Species on record: Rattus norvegicus
Test: Open TG-GATES - Regimen: Daily Repeat
Format: toxicity, organism-based, Sprague-Dawley
Parameters: regimen Daily Repeat, gender Male, age 6 weeks
Conditions: in vivo, po, route gavage; for APTT / Bas / Eos / Fbg / Hb / Ht / Lym / MCH / MCHC / MCV / Mono / Neu / RBC / Ret / WBC / Plat / PT: tissue Blood; for KIDNEY_L / KIDNEY_R / KIDNEY_TOTAL: tissue Kidney; for ALP / ALT / AST / BUN / CRE / Ca / Cl / DBIL / GLC / IP / K / LDH / Na / PL / RALB / TBIL / TC / TG / TP / gamma-GTP: tissue Plasma
[1] = 150 mg/kg, 72 h, dose level Middle, time 3 day
[2] = 150 mg/kg, […], dose level Middle, time 7 day
[3] = 150 mg/kg, […], dose level Middle, time 14 day
[4] = 150 mg/kg, […], dose level Middle, time 28 day
[5] = 450 mg/kg, 72 h, dose level High, time 3 day
[6] = 450 mg/kg, […], dose level High, time 7 day
[7] = 450 mg/kg, […], dose level High, time 14 day
[8] = 450 mg/kg, […], dose level High, time 28 day

## CC(=O)Oc1ccccc1C(=O)O [ASPIRIN]
[1]
  APTT: 19 s
  Bas: 0%
  Eos: 1%
  Fbg: 227.8 mg/dL
  Hb: 13.4 g/dL
  Ht: 39.3%
  Lym: 80.8%
  MCH: 21.4 pg
  MCHC: 34.1%
  MCV: 62.7 fL
  Mono: 2.8%
  Neu: 14.4%
  RBC: 627.2 x10_4/ul
  Ret: 5.9%
  WBC: 108.2 x10_2/uL
  KIDNEY_L: 1.1 g
  KIDNEY_R: 1.1 g
  KIDNEY_TOTAL: 2.1 g
  ALP: 924.6 IU/L
  ALT: 33.4 IU/L
  AST: 68.4 IU/L
  BUN: 12.2 mg/dL
  CRE: 0.4 mg/dL
  Ca: 10.6 mg/dL
  Cl: 102.4 meq/L
  DBIL: 0.078 mg/dL
  GLC: 196.6 mg/dL
  IP: 7 mg/dL
  K: 3.7 meq/L
  LDH: 210.2 IU/L
  Na: 141 meq/L
  PL: 155.8 mg/dL
  RALB: 3.4 g/dL
  TBIL: 0.1 mg/dL
  TC: 73.8 mg/dL
  TG: 117.6 mg/dL
  TP: 5.6 g/dL
  gamma-GTP: 1 IU/L
[2]
  TERMINAL_BW: 268.1 g
  APTT: 19.3 s
  Bas: 0%
  Eos: 1%
  Fbg: 216 mg/dL
  Hb: 14 g/dL
  Ht: 41.1%
  Lym: 82.4%
  MCH: 20.8 pg
  MCHC: 34%
  MCV: 61.3 fL
  Mono: 2.4%
  Neu: 13.2%
  Plat: 119 x10_4/uL
  RBC: 671 x10_4/ul
  Ret: 4.7%
  WBC: 119.6 x10_2/uL
  KIDNEY_L: 1.2 g
  KIDNEY_R: 1.2 g
  KIDNEY_TOTAL: 2.3 g
  ALP: 901.8 IU/L
  ALT: 35 IU/L
  AST: 66.8 IU/L
  BUN: 16 mg/dL
  CRE: 0.4 mg/dL
  Ca: 10.4 mg/dL
  Cl: 102.4 meq/L
  DBIL: 0.094 mg/dL
  GLC: 211.6 mg/dL
  IP: 8.5 mg/dL
  K: 4 meq/L
  LDH: 222.2 IU/L
  Na: 141 meq/L
  PL: 158.4 mg/dL
  RALB: 3.2 g/dL
  TBIL: 0.1 mg/dL
  TC: 71.8 mg/dL
  TG: 153.4 mg/dL
  TP: 5.4 g/dL
  gamma-GTP: 0.6 IU/L
[3]
  TERMINAL_BW: 320.9 g
  APTT: 19.5 s
  Bas: 0%
  Eos: 1.8%
  Fbg: 204.8 mg/dL
  Hb: 14.9 g/dL
  Ht: 42.1%
  Lym: 77.6%
  MCH: 21.1 pg
  MCHC: 35.3%
  MCV: 59.7 fL
  Mono: 2.8%
  Neu: 17.2%
  Plat: 125.3 x10_4/uL
  RBC: 704.8 x10_4/ul
  Ret: 3.5%
  WBC: 156.5 x10_2/uL
  KIDNEY_L: 1.3 g
  KIDNEY_R: 1.3 g
  KIDNEY_TOTAL: 2.6 g
  ALP: 825.8 IU/L
  ALT: 36.8 IU/L
  AST: 77 IU/L
  BUN: 14.6 mg/dL
  CRE: 0.4 mg/dL
  Ca: 10.4 mg/dL
  Cl: 102.2 meq/L
  DBIL: 0.092 mg/dL
  GLC: 187.4 mg/dL
  IP: 8 mg/dL
  K: 4.2 meq/L
  LDH: 252 IU/L
  Na: 141.6 meq/L
  PL: 158.6 mg/dL
  RALB: 3.3 g/dL
  TBIL: 0.1 mg/dL
  TC: 72.4 mg/dL
  TG: 151.4 mg/dL
  TP: 5.5 g/dL
  gamma-GTP: 0.8 IU/L
[4]
  TERMINAL_BW: 404.7 g
  APTT: 21.3 s
  Bas: 0%
  Eos: 1.4%
  Fbg: 205.4 mg/dL
  Hb: 15.4 g/dL
  Ht: 44.6%
  Lym: 80.2%
  MCH: 19.6 pg
  MCHC: 34.6%
  MCV: 56.7 fL
  Mono: 2.4%
  Neu: 14.6%
  Plat: 108.6 x10_4/uL
  RBC: 789.2 x10_4/ul
  Ret: 2.2%
  WBC: 108.6 x10_2/uL
  KIDNEY_L: 1.5 g
  KIDNEY_R: 1.5 g
  KIDNEY_TOTAL: 3 g
  ALP: 641.6 IU/L
  ALT: 35.8 IU/L
  AST: 81.4 IU/L
  BUN: 16.2 mg/dL
  CRE: 0.5 mg/dL
  Ca: 10.2 mg/dL
  Cl: 102.8 meq/L
  DBIL: 0.1 mg/dL
  GLC: 229.2 mg/dL
  IP: 7.3 mg/dL
  K: 3.8 meq/L
  LDH: 193 IU/L
  Na: 142.2 meq/L
  PL: 149.8 mg/dL
  RALB: 3.4 g/dL
  TBIL: 0.2 mg/dL
  TC: 69.4 mg/dL
  TG: 148.8 mg/dL
  TP: 5.8 g/dL
  gamma-GTP: 0.6 IU/L
[5]
  TERMINAL_BW: 232.1 g
  APTT: 24.9 s
  Bas: 0%
  Eos: 0.4%
  Fbg: 212.4 mg/dL
  Hb: 13.5 g/dL
  Ht: 39.3%
  Lym: 81.4%
  MCH: 21.4 pg
  MCHC: 34.2%
  MCV: 62.5 fL
  Mono: 2%
  Neu: 14.8%
  PT: 14.1 s
  Plat: 122.2 x10_4/uL
  RBC: 630 x10_4/ul
  Ret: 4.7%
  WBC: 126.2 x10_2/uL
  KIDNEY_L: 1.1 g
  KIDNEY_R: 1.1 g
  KIDNEY_TOTAL: 2.2 g
  ALP: 880.2 IU/L
  ALT: 47 IU/L
  AST: 82.4 IU/L
  BUN: 14.8 mg/dL
  CRE: 0.4 mg/dL
  Ca: 11.2 mg/dL
  Cl: 103 meq/L
  DBIL: 0.1 mg/dL
  GLC: 188 mg/dL
  IP: 7.1 mg/dL
  K: 3.7 meq/L
  LDH: 233.4 IU/L
  Na: 142.2 meq/L
  PL: 147.2 mg/dL
  RALB: 3.3 g/dL
  TBIL: 0.2 mg/dL
  TC: 62.2 mg/dL
  TG: 187 mg/dL
  TP: 5.5 g/dL
  gamma-GTP: 1.4 IU/L
[6]
  TERMINAL_BW: 257.1 g
  APTT: 22.6 s
  Bas: 0%
  Eos: 0.8%
  Fbg: 210.2 mg/dL
  Hb: 13.3 g/dL
  Ht: 39.6%
  Lym: 81.6%
  MCH: 21.2 pg
  MCHC: 33.7%
  MCV: 63 fL
  Mono: 2.2%
  Neu: 14%
  PT: 13.6 s
  Plat: 111.3 x10_4/uL
  RBC: 629.4 x10_4/ul
  Ret: 7.9%
  WBC: 159.1 x10_2/uL
  KIDNEY_L: 1.1 g
  KIDNEY_R: 1.1 g
  KIDNEY_TOTAL: 2.3 g
  ALP: 1005.2 IU/L
  ALT: 51.6 IU/L
  AST: 102.4 IU/L
  BUN: 16.8 mg/dL
  CRE: 0.5 mg/dL
  Ca: 11 mg/dL
  Cl: 102.4 meq/L
  DBIL: 0.1 mg/dL
  GLC: 207.4 mg/dL
  IP: 7.4 mg/dL
  K: 4.1 meq/L
  LDH: 248.2 IU/L
  Na: 142 meq/L
  PL: 158.6 mg/dL
  RALB: 3.4 g/dL
  TBIL: 0.2 mg/dL
  TC: 66.8 mg/dL
  TG: 182.4 mg/dL
  TP: 5.3 g/dL
  gamma-GTP: 1.2 IU/L
[7]
  TERMINAL_BW: 301.6 g
  APTT: 22.1 s
  Bas: 0%
  Eos: 1%
  Fbg: 210 mg/dL
  Hb: 14.5 g/dL
  Ht: 41.5%
  Lym: 78.6%
  MCH: 21.3 pg
  MCHC: 34.9%
  MCV: 61.1 fL
  Mono: 2.6%
  Neu: 16.4%
  PT: 13 s
  Plat: 125.9 x10_4/uL
  RBC: 679.8 x10_4/ul
  Ret: 4.7%
  WBC: 146.8 x10_2/uL
  KIDNEY_L: 1.3 g
  KIDNEY_R: 1.3 g
  KIDNEY_TOTAL: 2.5 g
  ALP: 871 IU/L
  ALT: 46.2 IU/L
  AST: 92.8 IU/L
  BUN: 16.4 mg/dL
  CRE: 0.5 mg/dL
  Ca: 10.8 mg/dL
  Cl: 101.4 meq/L
  DBIL: 0.1 mg/dL
  GLC: 175.8 mg/dL
  IP: 7.6 mg/dL
  K: 4.4 meq/L
  LDH: 312 IU/L
  Na: 141.2 meq/L
  PL: 170.6 mg/dL
  RALB: 3.3 g/dL
  TBIL: 0.2 mg/dL
  TC: 65.6 mg/dL
  TG: 250.6 mg/dL
  TP: 5.4 g/dL
  gamma-GTP: 0.8 IU/L
[8]
  TERMINAL_BW: 356.2 g
  APTT: 23.9 s
  Bas: 0%
  Eos: 1%
  Fbg: 194.2 mg/dL
  Hb: 14.9 g/dL
  Ht: 43.2%
  Lym: 76.6%
  MCH: 20.1 pg
  MCHC: 34.5%
  MCV: 58.2 fL
  Mono: 2.6%
  Neu: 18.8%
  PT: 14 s
  Plat: 90.2 x10_4/uL
  RBC: 746.6 x10_4/ul
  Ret: 3.3%
  WBC: 115.2 x10_2/uL
  KIDNEY_L: 1.3 g
  KIDNEY_R: 1.4 g
  KIDNEY_TOTAL: 2.7 g
  ALP: 771.8 IU/L
  ALT: 40.6 IU/L
  AST: 85.6 IU/L
  BUN: 18.4 mg/dL
  CRE: 0.5 mg/dL
  Ca: 10.3 mg/dL
  Cl: 102.6 meq/L
  DBIL: 0.094 mg/dL
  GLC: 204.4 mg/dL
  IP: 6.5 mg/dL
  K: 4 meq/L
  LDH: 179 IU/L
  Na: 141.8 meq/L
  PL: 146.6 mg/dL
  RALB: 3.4 g/dL
  TBIL: 0.2 mg/dL
  TC: 58.2 mg/dL
  TG: 172.4 mg/dL
  TP: 5.2 g/dL
  gamma-GTP: 1 IU/L
